The record followed here is US20090156577A1, “7-AMINO ALKYLIDENYL-HETEROCYCLIC QUINOLONES AND NAPHTHYRIDONES” (priority 2004, published 2009).

For orientation: MIC means the least concentration at which growth counts as inhibited.

For the assay, the system named is pathogenic bacteria. Nature of the assay: MIC by microdilution broth method (NCCLS M7-A4), in vitro antibacterial activity. The assay is classed as cell-based. In a few lines: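 MIC read after 35 °C incubation for 16–20 h relative to drug-free growth wells. Cation-adjusted Mueller-Hinton broth with two-fold compound dilutions, organisms at roughly 5×10^4 CFU/well final. Method follows NCCLS document M7-A4.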

[1] abbreviates: Staphylococcus aureus, Organism A: Staphylococcus aureus OC4172, read-out: MIC.
[2] abbreviates: Streptococcus pneumoniae, ATCC49619, Organism E: Streptococcus pneumoniae ATCC 49619, read-out: MIC.
[3] abbreviates: Streptococcus pneumoniae, Organism B: fluoroquinolone-resistant clinical isolate of Streptococcus pneumoniae (QRDR amino acid substitutions).
The mark [4] stands for this setting: Streptococcus pneumoniae, Organism C: fluoroquinolone-resistant clinical isolate of Streptococcus pneumoniae (QRDR amino acid substitutions).
Where [5] appears, read: Streptococcus pneumoniae, Organism D: fluoroquinolone-resistant clinical isolate of Streptococcus pneumoniae (QRDR amino acid substitutions).

Values after ≈ are worked out from the molar mass of the structure shown. Like-named read-outs stand apart in the source and are kept apart here.

For `N#C/C(CN)=C1/CCCN(c2nc3c(cc2F)c(=O)c(C(=O)O)cn3C2CC2)C1` [Compound 443, (Z)-7-[3-(2-Amino-1-cyano-ethylidene)-piperidin-1-yl]-1-cyclopropyl-6-fluoro-4-oxo-1,4-dihydro-[1,8]naphthyridine-3-carboxylic Acid], the MIC runs as follows: under setting [1], 0.5 µg/mL (≈ 1.26 µM); under setting [2], 8 µg/mL (≈ 20.1 µM); under setting [3], 8 µg/mL (≈ 20.1 µM); under setting [4], above 16 µg/mL; under setting [5], above 16 µg/mL.

Consider `COc1c(N2CCC(=C(Cl)CNC(=O)CN)CC2)c(F)cc2c(=O)c(C(=O)O)cn(C3CC3)c12.O=C(O)C(F)(F)F` [Compound 445, 7-{4-[2-(2-Amino-acetylamino)-1-chloro-ethylidene]-piperidin-1-yl}-1-cyclopropyl-6-fluoro-8-methoxy-4-oxo-1,4-dihydro-quinoline-3-carboxylic Acid Trifluoroacetate Salt], for which the MIC is 0.12 µg/mL under setting [1]; 1 µg/mL under setting [2]; 16 µg/mL under setting [3]; above 16 µg/mL under setting [4]; above 16 µg/mL under setting [5].

Regarding `COc1c(N2CCC/C(=C(/Cl)CN)C2)c(F)cc2c(=O)c(C(=O)O)cn(C3CC3)c12` [Compound 446, (Z)-7-[3-(2-Amino-1-chloro-ethylidene)-piperidin-1-yl]-1-cyclopropyl-6-fluoro-8-methoxy-4-oxo-1,4-dihydro-quinoline-3-carboxylic acid], the MIC is, setting by setting: under setting [1], 0.25 µg/mL (≈ 0.574 µM); under setting [2], 1 µg/mL (≈ 2.29 µM); under setting [4], 4 µg/mL (≈ 9.18 µM); under setting [5], 4 µg/mL (≈ 9.18 µM).

Turning to `NC/C(Cl)=C1\CCCN(c2c(F)cc3c(=O)c(C(=O)O)cn(C4CC4)c3c2OC(F)F)C1` [Compound 447, (Z)-7-[3-(2-Amino-1-chloro-ethylidene)-piperidin-1-yl]-1-cyclopropyl-8-difluoromethoxy-6-fluoro-4-oxo-1,4-dihydro-quinoline-3-carboxylic acid], the MIC runs as follows: under setting [1], 0.25 µg/mL (≈ 0.53 µM); under setting [2], 1 µg/mL (≈ 2.12 µM); under setting [4], 16 µg/mL (≈ 33.9 µM); under setting [5], 1 µg/mL (≈ 2.12 µM).

Take `C[C@H]1COc2c(N3CCC/C(=C(/Cl)CN)C3)c(F)cc3c(=O)c(C(=O)O)cn1c23` [Compound 448, (Z)-9-[3-(2-Amino-1-chloro-ethylidene)-piperidin-1-yl]-8-fluoro-(3S)-3-methyl-6-oxo-2,3-dihydro-6H-1-oxa-3a-aza-phenalene-5-carboxylic acid]: the MIC under setting [1] was found to be 0.25 µg/mL (≈ 0.593 µM), the MIC under setting [2] is 2 µg/mL (≈ 4.74 µM), the MIC under setting [4] is 8 µg/mL (≈ 19 µM) and the MIC under setting [5] was found to be 16 µg/mL (≈ 37.9 µM).

With `COc1c(N2CCC/C(=C(/Cl)CN)C2)c(F)cc2c(=O)c(C(=O)O)cn([C@@H]3C[C@@H]3F)c12` [Compound 449, (Z)-7-[3-(2-Amino-1-chloro-ethylidene)-piperidin-1-yl]-6-fluoro-(1R,2S)-1-(2-fluoro-cyclopropyl)-8-methoxy-4-oxo-1,4-dihydro-quinoline-3-carboxylic acid], the MIC by setting is: under setting [1], 0.25 µg/mL (≈ 0.551 µM); under setting [2], 2 µg/mL (≈ 4.41 µM); under setting [4], above 16 µg/mL; under setting [5], 16 µg/mL (≈ 35.3 µM).

In the case of `NC/C(Cl)=C1\CCCN(c2c(F)cc3c(=O)c(C(=O)O)cn(-c4nc(N)c(F)cc4F)c3c2Cl)C1` [Compound 450, (Z)-7-[3-(2-Amino-1-chloro-ethylidene)-piperidin-1-yl]-1-(6-amino-3,5-difluoro-pyridin-2-yl)-8-chloro-6-fluoro-4-oxo-1,4-dihydro-quinoline-3-carboxylic acid], the MIC reads like this: under setting [1], 0.12 µg/mL (≈ 0.227 µM); under setting [2], 0.5 µg/mL (≈ 0.946 µM); under setting [4], 8 µg/mL (≈ 15.1 µM); under setting [5], 8 µg/mL (≈ 15.1 µM).

`Cc1c(F)c(N2CCC/C(=C\CN)C2)cc2c1c(=O)c(C(=O)O)cn2C1CC1` [Compound 451, (E)-7-[3-(2-Amino-ethylidene)-piperidin-1-yl]-1-cyclopropyl-6-fluoro-5-methyl-4-oxo-1,4-dihydro-quinoline-3-carboxylic acid]: the MIC reads like this: under setting [1], 0.25 µg/mL (≈ 0.649 µM); under setting [2], 1 µg/mL (≈ 2.59 µM); under setting [4], 16 µg/mL (≈ 41.5 µM); under setting [5], 1 µg/mL (≈ 2.59 µM).

With `Cc1c(F)c(N2CCC/C(=C(/Cl)CN)C2)cc2c1c(=O)c(C(=O)O)cn2C1CC1` [Compound 452, (Z)-7-[3-(2-Amino-1-chloro-ethylidene)-piperidin-1-yl]-1-cyclopropyl-6-fluoro-5-methyl-4-oxo-1,4-dihydro-quinoline-3-carboxylic acid], the MIC was 0.5 µg/mL (≈ 1.19 µM) under setting [1], 4 µg/mL (≈ 9.53 µM) under setting [2], 4 µg/mL (≈ 9.53 µM) under setting [4] and above 16 µg/mL under setting [5].

For `CNC/C(F)=C1/CCCN(c2c(F)cc3c(=O)c(C(=O)O)cn(C4CC4)c3c2OC)C1.Cl` [Compound 453, (E)-1-Cyclopropyl-6-fluoro-7-[3-(1-fluoro-2-methylamino-ethylidene)-piperidin-1-yl]-8-methoxy-4-oxo-1,4-dihydro-quinoline-3-carboxylic Acid Hydrochloride Salt], the MIC turned out to be 0.06 µg/mL under setting [1], 0.25 µg/mL under setting [2], 4 µg/mL under setting [4] and 2 µg/mL under setting [5].

On to `COc1c(N2CCC(=C(Cl)CN)CC2)c(F)c(C)c2c(=O)c(C(=O)O)cn(C3CC3)c12` [Compound 455, 7-[4-(2-Amino-1-chloro-ethylidene)-piperidin-1-yl]-1-cyclopropyl-6-fluoro-8-methoxy-5-methyl-4-oxo-1,4-dihydro-quinoline-3-carboxylic Acid], for which the minimum inhibitory concentration (MIC) by setting is: under setting [1], at most 0.015 µg/mL; under setting [2], 0.25 µg/mL (≈ 0.556 µM); under setting [3], 0.12 µg/mL (≈ 0.267 µM); under setting [4], 2 µg/mL (≈ 4.45 µM); under setting [5], 1 µg/mL (≈ 2.22 µM).

Regarding `NC/C(F)=C1/CCCN(c2c(F)c(N)c3c(=O)c(C(=O)O)cn(C4CC4)c3c2F)C1` [Compound 456, 5-Amino-7-[(E)-3-(2-amino-1-fluoro-ethylidene)-piperidin-1-yl]-1-cyclopropyl-6,8-difluoro-4-oxo-1,4-dihydro-quinoline-3-carboxylic Acid], the MIC under setting [1] was at most 0.015 µg/mL; the MIC under setting [2] was found to be 0.03 µg/mL (≈ 0.071 µM); the lowest concentration to inhibit growth under setting [3] (MIC) was 0.06 µg/mL (≈ 0.142 µM); it took 0.12 µg/mL (≈ 0.284 µM) to inhibit growth under setting [4] (MIC); the MIC under setting [5] came out at 0.12 µg/mL (≈ 0.284 µM).

Take `NC/C(F)=C1/CCCN(c2c(F)cc3c(=O)c(C(=O)O)cn(C4CC4)c3c2OCF)C1` [Compound 457, 7-[(E)-3-(2-Amino-1-fluoro-ethylidene)-piperidin-1-yl]-1-cyclopropyl-6-fluoro-8-fluoromethoxy-4-oxo-1,4-dihydro-quinoline-3-carboxylic Acid]: the MIC came to 0.25 µg/mL (≈ 0.572 µM) under setting [1]; 1 µg/mL (≈ 2.29 µM) under setting [2]; 2 µg/mL (≈ 4.57 µM) under setting [3]; 8 µg/mL (≈ 18.3 µM) under setting [4]; 4 µg/mL (≈ 9.14 µM) under setting [5].

On to `COc1c(N2CCC/C(=C(\F)CN)C2)c(F)c(C)c2c(=O)c(C(=O)O)cn(C3CC3)c12` [Compound 458, 7-[(E)-3-(2-Amino-1-fluoro-ethylidene)-piperidin-1-yl]-1-cyclopropyl-6-fluoro-8-methoxy-5-methyl-4-oxo-1,4-dihydro-quinoline-3-carboxylic Acid], for which the MIC under setting [1] was at most 0.015 µg/mL; the MIC under setting [2] is 0.06 µg/mL (≈ 0.138 µM); the MIC under setting [3] is 0.03 µg/mL (≈ 0.0692 µM); the MIC under setting [4] was determined as 0.25 µg/mL (≈ 0.577 µM); the MIC under setting [5] was found to be 0.25 µg/mL (≈ 0.577 µM).

As for `Cc1c(N2CCC/C(=C(\F)CN)C2)c(F)cc2c(=O)c(C(=O)O)cn(C3CC3)c12` [Compound 459, 7-[(E)-3-(2-Amino-1-fluoro-ethylidene)-piperidin-1-yl]-1-cyclopropyl-6-fluoro-8-methyl-4-oxo-1,4-dihydro-quinoline-3-carboxylic Acid], the MIC is at most 0.015 µg/mL under setting [1], 0.06 µg/mL (≈ 0.149 µM) under setting [2], 0.25 µg/mL (≈ 0.62 µM) under setting [4] and 0.12 µg/mL (≈ 0.297 µM) under setting [5].

In the case of `COc1c(N2CCC(=C(F)CCN)CC2)c(F)cc2c(=O)c(C(=O)O)cn(C3CC3)c12` [Compound 467, 7-{4-[3-Amino-1-fluoro-propylidene]-piperidin-1-yl}-1-cyclopropyl-6-fluoro-8-methoxy-4-oxo-1,4-dihydro-quinoline-3-carboxylic Acid], the MIC was 0.12 µg/mL (≈ 0.277 µM) under setting [1]; 0.5 µg/mL (≈ 1.15 µM) under setting [2]; 0.5 µg/mL (≈ 1.15 µM) under setting [3]; 4 µg/mL (≈ 9.23 µM) under setting [4]; 1 µg/mL (≈ 2.31 µM) under setting [5].

Consider `C[C@H]1COc2c(N3CCC/C(=C(/F)CN)CC3)c(F)cc3c(=O)c(C(=O)O)cn1c23` [Compound 491, (3S)-9-[(Z)-4-(2-Amino-1-fluoro-ethylidene)-azepan-1-yl]-8-fluoro-3-methyl-6-oxo-2,3-dihydro-6H-1-oxa-3a-aza-phenalene-5-carboxylic Acid], for which the MIC under setting [1] turned out to be 0.12 µg/mL (≈ 0.286 µM), the MIC under setting [2] turned out to be 1 µg/mL (≈ 2.38 µM), the MIC under setting [4] is 8 µg/mL (≈ 19.1 µM) and 16 µg/mL (≈ 38.1 µM) was the least that counted as inhibitory under setting [5] (MIC).

`C[C@H]1COc2c(N3CCC/C(=C(\F)CN)CC3)c(F)cc3c(=O)c(C(=O)O)cn1c23` [Compound 492, (3S)-9-[(E)-4-(2-Amino-1-fluoro-ethylidene)-azepan-1-yl]-8-fluoro-3-methyl-6-oxo-2,3-dihydro-6H-1-oxa-3a-aza-phenalene-5-carboxylic Acid]: the MIC was determined as 0.06 µg/mL (≈ 0.143 µM) under setting [1], 0.25 µg/mL (≈ 0.596 µM) under setting [2], 4 µg/mL (≈ 9.54 µM) under setting [4] and 8 µg/mL (≈ 19.1 µM) under setting [5].

As for `C[C@H]1COc2c(N3CCOC/C(=C(\F)CN)C3)c(F)cc3c(=O)c(C(=O)O)cn1c23` [Compound 493, 9-[(Z)-6-(2-Amino-1-fluoro-ethylidene)-[1,4]oxazepan-4-yl]-8-fluoro-(3S)-3-methyl-6-oxo-2,3-dihydro-6H-1-oxa-3a-aza-phenalene-5-carboxylic Acid], the MIC under setting [1] was determined as 0.06 µg/mL (≈ 0.142 µM), the MIC under setting [2] came to 0.5 µg/mL (≈ 1.19 µM), the MIC under setting [4] is above 16 µg/mL and the MIC under setting [5] was determined as 1 µg/mL (≈ 2.37 µM).
